Experimental data reported in the NIST ThermoML archive (doi:10.1016/j.jct.2008.12.010).

Test: xn = mol fraction of the nth substance listed
Conditions: for speed of sound / mass density: Liquid; for speed of sound: Linear variable-path acoustic interferometer; for mass density: Vibrating tube method; for surface tension liquid-gas: Drop volume

Cc1ccc(C)cc1 [1,4-dimethylbenzene] + CCCCCCCCCC
Conditions | mass density [kg/m3] | speed of sound [m/s] | surface tension liquid-gas [mN/m]
288.15 K, x1 = 0.1092 | 742.78 | 1276.2 | –
288.15 K, x1 = 0.1984 | 750.98 | 1278.7 | –
288.15 K, x1 = 0.3105 | 762.21 | 1282.7 | –
288.15 K, x1 = 0.3427 | 765.62 | 1284.1 | –
288.15 K, x1 = 0.4919 | 782.82 | 1292.3 | –
288.15 K, x1 = 0.5438 | 789.38 | 1295.8 | –
288.15 K, x1 = 0.5995 | 796.78 | 1300.1 | –
288.15 K, x1 = 0.7293 | 815.71 | 1312.2 | –
288.15 K, x1 = 0.7829 | 824.32 | 1318.2 | –
288.15 K, x1 = 0.8993 | 844.93 | 1333.7 | –
288.15 K, x1 = 0.9499 | 854.78 | 1341.9 | –
293.15 K, x1 = 0.1092 | 739.03 | 1256.7 | –
293.15 K, x1 = 0.1984 | 747.15 | 1259 | –
293.15 K, x1 = 0.3427 | 761.75 | 1264.3 | –
293.15 K, x1 = 0.4919 | 778.88 | 1272.3 | –
293.15 K, x1 = 0.5438 | 785.41 | 1275.7 | –
293.15 K, x1 = 0.5995 | 792.78 | 1279.9 | –
293.15 K, x1 = 0.7293 | 811.62 | 1291.8 | –
293.15 K, x1 = 0.7829 | 820.21 | 1297.8 | –
293.15 K, x1 = 0.8993 | 840.73 | 1312.9 | –
293.15 K, x1 = 0.9499 | 850.54 | 1320.9 | –
293.18 K, x1 = 0.3105 | 758.36 | 1262.9 | –
298.15 K, x1 = 0.09726 | – | – | 23.21
298.15 K, x1 = 0.1092 | 735.23 | 1236.5 | –
298.15 K, x1 = 0.1984 | 743.31 | 1238.7 | –
298.15 K, x1 = 0.2 | – | – | 23.4
298.15 K, x1 = 0.2959 | – | – | 23.61
298.15 K, x1 = 0.3105 | 754.46 | 1242.7 | –
298.15 K, x1 = 0.3427 | 757.83 | 1244 | –
298.15 K, x1 = 0.4047 | – | – | 23.89
298.15 K, x1 = 0.4919 | 774.88 | 1251.8 | –
298.15 K, x1 = 0.4998 | – | – | 24.23
298.15 K, x1 = 0.5374 | – | – | 24.37
298.15 K, x1 = 0.5438 | 781.38 | 1255.3 | –
298.15 K, x1 = 0.5995 | 788.72 | 1259.3 | –
298.15 K, x1 = 0.6024 | – | – | 24.66
298.15 K, x1 = 0.6962 | – | – | 25.15
298.15 K, x1 = 0.7293 | 807.48 | 1271.1 | –
298.15 K, x1 = 0.7829 | 816.03 | 1276.9 | –
298.15 K, x1 = 0.8025 | – | – | 25.73
298.15 K, x1 = 0.8914 | – | – | 26.33
298.15 K, x1 = 0.8993 | 836.47 | 1291.9 | –
298.15 K, x1 = 0.9499 | 846.25 | 1299.8 | –
298.15 K, x1 = 0.9503 | – | – | 26.79
303.15 K, x1 = 0.1092 | 731.39 | 1216.6 | –
303.15 K, x1 = 0.1984 | 739.42 | 1218.8 | –
303.15 K, x1 = 0.3105 | 750.53 | 1222.5 | –
303.15 K, x1 = 0.3427 | 753.87 | 1223.9 | –
303.15 K, x1 = 0.4919 | 770.85 | 1231.6 | –
303.15 K, x1 = 0.5438 | 777.33 | 1235 | –
303.15 K, x1 = 0.5995 | 784.63 | 1239 | –
303.15 K, x1 = 0.7293 | 803.32 | 1250.6 | –
303.15 K, x1 = 0.7829 | 811.82 | 1256.3 | –
303.15 K, x1 = 0.8993 | 832.18 | 1271.3 | –
303.15 K, x1 = 0.9499 | 841.92 | 1278.9 | –
